Test results reported in US9603364B2 (Dow AgroSciences LLC, priority 2013, dated 2017).

What was measured:
Assay in all cases: General post-emergent herbicidal activity, foliar application
Type in all cases: in vivo
[1] = tested on: Oryza sativa L. (rice); settings: Oryza sativa, 336 h, scored after 14 days, read-out: % Visual Growth Reduction ORYSA
How it was run: (§1)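 Compounds in acetone/DMSO (97:3) diluted into aqueous spray with isopropanol, Atplus 411F crop oil and Triton X-155; top rate plus 1/2×–1/16× serial rates applied to foliage, solvent blank as control. Greenhouse, sub-irrigated; visual injury versus untreated plants scored 0–100% (100 = complete kill) after 14 days.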

[2] = tested on: Zea mays L. (corn); settings: 336 h, scored after 14 days, read-out: % Visual Growth Reduction ZEAMX
How it was run: as §1

[3] = tested on: Amaranthus retroflexus L. (pigweed, redroot)
How it was run: (§2)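 Compounds in acetone/DMSO 97:3 were diluted into aqueous spray mix with isopropanol, crop oil concentrate and Triton X-155, then serially diluted to 1/2×–1/16× of the top rate and sprayed on foliage. Plants were kept in greenhouse with sub-irrigation. Injury was scored visually (0–100%) at 14 days; GR20/GR50/GR80 came from probit analysis.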

[4] = tested on: Chenopodium album L. (lambsquarters, common)
How it was run: as §2

[5] = tested on: Euphorbia heterophylla L. (poinsettia, wild)
How it was run: as §2

[6] = tested on: Helianthus annuus L. (sunflower, common)
How it was run: as §2

[7] = tested on: Viola tricolor L. (pansy)
How it was run: as §2

[8] = tested on: Echinochloa crus-galli (L.) Beauv. (barnyardgrass)
How it was run: as §2

[9] = calculated by probit analysis, dose for 80% visual injury, may be extrapolated

Compound `CC(F)c1nc(C(=O)O)c(Cl)c(N)c1F` (stereo not drawn) [Compound F30, 4-amino-3-chloro-5-fluoro-6-(1-fluoroethyl)picolinic acid] has a plant injury at 70 g/ha ([1]; 70 g ai/ha) of 0%, a plant injury at 140 g/ha ([1]; 140 g ai/ha) of 0% and a plant injury at 280 g/ha ([1]; 280 g ai/ha) of 0%. It also gave a plant injury at 70 g/ha ([2]; 70 g ai/ha) of 100%, a plant injury at 140 g/ha ([2]; 140 g ai/ha) of 100% and a plant injury at 280 g/ha ([2]; 280 g ai/ha) of 100%. The pest or weed control at 70 g/ha ([3]; Amaranthus retroflexus, 336 h, 70 g ai/ha, foliar post-emergent, scored after 14 days, read-out: % Visual Growth Reduction AMARE) was 100%, the pest or weed control at 140 g/ha ([3]; Amaranthus retroflexus, 336 h, 140 g ai/ha, foliar post-emergent, scored after 14 days, read-out: % Visual Growth Reduction AMARE) was 100% and the pest or weed control at 280 g/ha ([3]; Amaranthus retroflexus, 336 h, 280 g ai/ha, foliar post-emergent, scored after 14 days, read-out: % Visual Growth Reduction AMARE) was 100%. For the same compound, the “GR80 Value AMARE” value [3, 9] was 40.6 g ai/ha, the pest or weed control at 70 g/ha ([4]; Chenopodium album, 336 h, 70 g ai/ha, foliar post-emergent, scored after 14 days, read-out: % Visual Growth Reduction CHEAL) was 95% and the pest or weed control at 140 g/ha ([4]; Chenopodium album, 336 h, 140 g ai/ha, foliar post-emergent, scored after 14 days, read-out: % Visual Growth Reduction CHEAL) was 95%. The pest or weed control at 280 g/ha ([4]; Chenopodium album, 336 h, 280 g ai/ha, foliar post-emergent, scored after 14 days, read-out: % Visual Growth Reduction CHEAL) was 100%, the “GR80 Value CHEAL” value [4, 9] was <17.5 g ai/ha and the pest or weed control at 70 g/ha ([5]; Euphorbia heterophylla, 336 h, 70 g ai/ha, foliar post-emergent, scored after 14 days, read-out: % Visual Growth Reduction EPHHL) was 70%. For the same compound, the pest or weed control at 140 g/ha ([5]; Euphorbia heterophylla, 336 h, 140 g ai/ha, foliar post-emergent, scored after 14 days, read-out: % Visual Growth Reduction EPHHL) was 100%, the pest or weed control at 280 g/ha ([5]; Euphorbia heterophylla, 336 h, 280 g ai/ha, foliar post-emergent, scored after 14 days, read-out: % Visual Growth Reduction EPHHL) was 100% and the “GR80 Value EPHHL” value [5, 9] was 84.9 g ai/ha. For the same compound, the pest or weed control at 70 g/ha ([6]; Helianthus annuus, 336 h, 70 g ai/ha, foliar post-emergent, scored after 14 days, read-out: % Visual Growth Reduction HELAN) was 80%, the pest or weed control at 140 g/ha ([6]; Helianthus annuus, 336 h, 140 g ai/ha, foliar post-emergent, scored after 14 days, read-out: % Visual Growth Reduction HELAN) was 90% and the pest or weed control at 280 g/ha ([6]; Helianthus annuus, 336 h, 280 g ai/ha, foliar post-emergent, scored after 14 days, read-out: % Visual Growth Reduction HELAN) was 90%. For the same compound, the “GR80 Value HELAN” value [6, 9] was 59.3 g ai/ha, the pest or weed control at 70 g/ha ([7]; Viola tricolor, 336 h, 70 g ai/ha, foliar post-emergent, scored after 14 days, read-out: % Visual Growth Reduction VIOTR) was 10% and the pest or weed control at 140 g/ha ([7]; Viola tricolor, 336 h, 140 g ai/ha, foliar post-emergent, scored after 14 days, read-out: % Visual Growth Reduction VIOTR) was 25%. For the same compound, the pest or weed control at 280 g/ha ([7]; Viola tricolor, 336 h, 280 g ai/ha, foliar post-emergent, scored after 14 days, read-out: % Visual Growth Reduction VIOTR) was 50%, the “GR80 Value VIOTR” value [7, 9] was >280 g ai/ha and the pest or weed control at 70 g/ha ([8]; Echinochloa crus-galli, 336 h, 70 g ai/ha, foliar post-emergent, scored after 14 days, read-out: % Visual Growth Reduction ECHCG) was 0%. For the same compound, the pest or weed control at 140 g/ha ([8]; Echinochloa crus-galli, 336 h, 140 g ai/ha, foliar post-emergent, scored after 14 days, read-out: % Visual Growth Reduction ECHCG) was 65%, the pest or weed control at 280 g/ha ([8]; Echinochloa crus-galli, 336 h, 280 g ai/ha, foliar post-emergent, scored after 14 days, read-out: % Visual Growth Reduction ECHCG) was 80% and the “GR80 Value ECHCG” value [8, 9] was 239 g ai/ha.
